From ChEMBL document CHEMBL1806483, “Discovery and SAR of 2-arylbenzotriazoles and 2-arylindazoles as potential treatments for Duchenne muscular dystrophy” (Bioorg Med Chem Lett, 2011)
≈ marks a conversion by molar mass, not a printed value.

Columns and labels:
[1] = Upregulation of utrophin transcription in mouse H2K cells after 48 hrs by luciferase reporter assay; format: functional, cell-based
[2] = Aqueous solubility of the compound in 0.01 M phosphate buffered saline at pH 7.4 after 2 hrs by turbidimetric method; format: physicochemical
[3] = Half life in human liver microsome by LC-MS/MS analysis; format: ADME; conditions: liver microsomes
[4] = Upregulation of utrophin transcription in mouse H2K cells at 3 uM after 48 hrs by luciferase reporter assay relative to 2-(4-(diethylamino)phenyl)-6-methyl-2H-benzo[d][1,2,3]triazol-5-amine; format: functional, cell-based
[5] = Upregulation of utrophin transcription in mouse H2K cells at 10 uM after 48 hrs by luciferase reporter assay relative to 2-(4-(diethylamino)phenyl)-6-methyl-2H-benzo[d][1,2,3]triazol-5-amine; format: functional, cell-based
[6] = Upregulation of utrophin mRNA expression in mouse H2K cells after 72 hrs by RT-PCR analysis relative to control; format: functional, cell-based

Row | SMILES | EC50 [1] [µM] | also measured
1 | CC(=O)Nc1ccc2nn(-c3ccc(Cl)cc3)nc2c1 | 1.8 | –
2 | CC(C)C(=O)Nc1ccc2nn(-c3ccc(Cl)cc3)nc2c1 | 0.76 | solubility kinetic at 2 h [2]: 1 µM (≈ 0.315 µg/mL); half-life [3]: 4.85 h
3 | CS(=O)(=O)c1ccc2nn(-c3ccc(Cl)cc3)nc2c1 | 11.7 | –
4 | CCS(=O)(=O)c1ccc2nn(-c3ccc4ccccc4c3)nc2c1 | – | Activity [4]: 73%
5 | CCC(=O)Nc1cc2nn(-c3ccc(N(CC)CC)cc3)nc2cc1C | > 30 | –
6 | Nc1ccc2nn(-c3ccc(Cl)cc3)nc2c1 | > 30 | –
7 | CS(=O)(=O)c1ccc2nn(-c3ccc4ccccc4c3)nc2c1 | – | Activity [4]: 63%
8 | CCN(CC)c1ccc(-n2nc3cc(C)c(NC(=O)C(C)C)cc3n2)cc1 | > 30 | –
9 | Cc1cc2nn(-c3ccc(Cl)cc3)nc2cc1NC(=O)c1cccnc1 | 3.07 | –
10 | CC(C)C(=O)Nc1ccc2nn(-c3ccc(Cl)c(Cl)c3)nc2c1 | – | Activity [4]: 87%
11 | CS(=O)(=O)c1ccc2cn(-c3ccc(Cl)cc3)nc2c1 | > 30 | –
12 | CCN(CC)c1ccc(-n2nc3ccc(N)cc3n2)cc1 | 0.7 | –
13 | CCS(=O)(=O)c1ccc2oc(-c3ccc4ccccc4c3)nc2c1 [EZUTROMID] | 1.8 | –
14 | CCS(=O)(=O)c1ccc2nn(-c3ccc(Cl)c(Cl)c3)nc2c1 | – | Activity [5]: 52%
15 | CCS(=O)(=O)c1ccc2nn(-c3ccc(Cl)cc3)nc2c1 | > 30 | –
16 | CCS(=O)(=O)c1ccc2cn(-c3ccc(Cl)cc3)nc2c1 | > 30 | –
17 | Cc1cc2nn(-c3ccc(Cl)cc3)nc2cc1NC(=O)C(C)C | > 30 | –
18 | CCN(CC)c1ccc(-n2nc3cc(C)c(NC(=O)c4ccco4)cc3n2)cc1 | > 30 | –
19 | CC(C)C(=O)Nc1ccc2cn(-c3ccc(Cl)cc3)nc2c1 | 1.73 | solubility kinetic at 2 h [2]: 3 µM (≈ 0.941 µg/mL); Activity [6]: 138%; half-life [3]: 3.3 h
20 | CC(C)S(=O)(=O)c1ccc2cn(-c3ccc(Cl)cc3)nc2c1 | – | Activity [5]: 54%
